Our source for the EC50 values is US20240173307A1, “MODULATORS OF THE INTEGRATED STRESS PATHWAY” (Calico Life Sciences LLC, priority 2017, published 2024).

Structures are written as SMILES. pEC50: −log10 of the molar value.

This assay concerns HEK293T cells carrying the ATF4 luciferase reporter. In words: ATF4-Luc assay (in vitro model of vanishing white matter disease). The format is cell-based. The following applies: Homo sapiens, HEK-293T, 1 μg/mL tunicamycin, 7 hours. Put shortly:
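Stable HEK293T line expressing firefly luciferase behind the human full-length ATF4 5′-UTR, grown in DMEM/10% FBS. Cells were co-treated with 1 μg/mL tunicamycin and 200 nM compound for 7 h. Luciferase luminescence was read as the output, and EC50 values were derived from it.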
One may read the pEC50 as the negative decadic logarithm of the EC50, by convention in mol/L. As to `O=C(COc1ccc(Cl)c(F)c1)NC12CCC(C(=O)NCc3ccc(Cl)cn3)(CC1)CC2` [Compound 257, 4-[2-(4-chloro-3-fluorophenoxy)acetamido]-N-[(5-chloropyridin-2-yl)methyl]bicyclo[2.2.2]octane-1-carboxamide], the pEC50 was more than 6.60.

For the compound `O=C(COc1ccc(Cl)c(F)c1)NC12CCC(C(=O)Nc3ccc(Cl)c(F)c3)(CC1)OC2` [Compound 338, 4-[2-(4-chloro-3-fluorophenoxy)acetamido]-N-(4-chloro-3-fluorophenyl)-2-oxabicyclo[2.2.2]octane-1-carboxamide], the pEC50 is more than 6.60.

As for `O=C(COc1ccc(Cl)c(F)c1)NC12CC(C(=O)NCc3ccc(C(F)F)cn3)(C1)C2` [Compound 345, 3-[2-(4-chloro-3-fluorophenoxy)acetamido]-N-{[5-(difluoromethyl)pyridin-2-yl]methyl}bicyclo[1.1.1]pentane-1-carboxamide], the pEC50 was 6.30 to 6.60.

On to `O=C(COc1ccc(Cl)c(F)c1)NC12CC(C(=O)NC(CO)c3ccc(Cl)cc3)(C1)C2` (stereo not drawn) [Compound 318, 3-[2-(4-chloro-3-fluorophenoxy)acetamido]-N-[1-(4-chlorophenyl)-2-hydroxyethyl]bicyclo[1.1.1]pentane-1-carboxamide], for which the pEC50 is less than 5.70.

Consider `O=C(COc1ccc(Cl)c(F)c1)NC12CCC(C(=O)NCc3ccc(C(F)(F)F)cc3)(CC1)C[C@@H]2O` (single isomer, unassigned) [Compound 270], for which the pEC50 is more than 6.60.

`O=C(COc1ccc(Cl)c(F)c1)NC12CCC(C(=O)NCc3ccc(C(F)F)cn3)(CC1)CC2` [Compound 346, 4-[2-(4-chloro-3-fluorophenoxy)acetamido]-N-{[5-(difluoromethyl)pyridin-2-yl]methyl}bicyclo[2.2.2]octane-1-carboxamide]: the pEC50 is more than 6.60.

Regarding `CC(NC(=O)C12CC(NC(=O)COc3ccc(Cl)c(F)c3)(C1)C2)c1cc2cc(Cl)ccc2o1` (stereo not drawn) [Compound 330, N-[1-(5-chloro-1-benzofuran-2-yl)ethyl]-3-[2-(4-chloro-3-fluorophenoxy)acetamido]bicyclo[1.1.1]pentane-1-carboxamide], the pEC50 was 5.70 to 6.00.

On to `O=C(COc1ccc(Cl)c(F)c1)NC12CCC(C(=O)Nc3ccc(Cl)cc3)(C1)C2` [Compound 286, 4-[2-(4-chloro-3-fluorophenoxy)acetamido]-N-(4-chlorophenyl)bicyclo[2.1.1]hexane-1-carboxamide], for which the pEC50 was less than 5.70.

`O=C(COc1ccc(Cl)c(F)c1)NC12CC(C(=O)Nc3ccncc3)(C1)C2` [Compound 301, 3-[2-(4-chloro-3-fluorophenoxy)acetamido]-N-(pyridin-4-yl)bicyclo[1.1.1]pentane-1-carboxamide]: the pEC50 is more than 6.60.
